Experimental data taken from patent US20120328516A1, “METHOD OF RADIOTHERAPY USING A RADIOLABELLED RGD PEPTIDE” (priority 2009, published 2012).
Starred links: 1 amine or outer side, 2 acyl side, 3 side chain; linkers in the order of their positions; H or OH if unused. Positions of bridges follow the written chain, without caps; N, C: chain ends. Residues, ends and D or L forms follow the SMILES beside them. Groups on a side chain read outwards from the residue. *: point of attachment. X3 = C/C(=N/O)C(C)(C)NCCC(CCNC(C)(C)/C(C)=N\O)CCN*; Glutaryl = O=C(CCCC(=O)[*:2])[*:1]; X2 = NC(=O)COCC(=O)NCCOCCOCCOCCN*

How the values were obtained:
subcutaneous U87 tumour = assay: co-registered coronal micro-PET/CT imaging of mouse bearing a subcutaneous U87 tumour; format: in vivo, C57/BI6 mouse; conditions: same mouse imaged with ^18F-FDG (3A) and ^18F-fluciclatide (3B); comparison of the two images
Text: FIGS. 3A and 3B show co-registered coronal micro-PET/CT images of the same C57/BI6 mouse bearing a subcutaneous U87 tumour on its left side. The emission image in 3A is that of ^18F-FDG and that in 3B is of ^18F-fluciclatide.

alphavbeta3/5 integrins = assay: co-registered contrast-enhanced CT and SPECT emission imaging of a necrotic lymph node metastasis for a primary breast cancer; format: in vivo
Text: The emission image was obtained for ^99mTc-maraciclatide. The necrotic centre in the CT image which corresponds to no uptake of the agent in the SPECT image.

| Structure (SMILES) | tumour uptake volume (subcutaneous U87 tumour) | uptake of the agent in the necrotic centre (alphavbeta3/5 integrins; SPECT image, necrotic centre of lymph node metastasis seen in CT image) | uptake in the sternum (alphavbeta3/5 integrins; concluded to be due to bone marrow uptake) | region surrounding the necrotic centre due to angiogenesis and other expressions of alphavbeta3/5 integrins (alphavbeta3/5 integrins; emission image co-registered with CT) |
| --- | --- | --- | --- | --- |
| OC[C@H]1OC(O)[C@H](F)[C@@H](O)[C@@H]1O (stereo partly shown) [^18F-FDG, fluorodeoxyglucose, reference compound] | difference in tumour uptake volumes | – | – | – |
| C/C(=N/O)C(C)(C)NCCC(CCNC(=O)CCCC(=O)NCCCC[C@@H]1NC(=O)CSC[C@@H](C(=O)NCCOCCOCCOCCNC(=O)COCC(N)=O)NC(=O)[C@H](Cc2ccccc2)NC(=O)[C@@H]2CSSC[C@H](NC1=O)C(=O)N[C@@H](CCCNC(=N)N)C(=O)NCC(=O)N[C@@H](CC(=O)O)C(=O)N2)CCNC(C)(C)/C(C)=N\O (stereo partly shown) [^99mTc-maraciclatide, metal not drawn] ({CH2CO}-K([Glutaryl-X3])CRGDCFC-X2; disulfide 2-6; thioether N-8) | – | no uptake | uptake in the sternum | highlighted |
